Patent US20260201008A1, “SECRETIN-DERIVED GLP1R SELECTIVE AGONISTS” (GUBRA A/S, priority 2023, published 2026)
Numbered stars: 1 amine (or outer) side, 2 acyl side, 3 side chain; on linkers, the order of the positions; unused ones are H or OH. Square brackets hold non-standard residues; d marks the D form. Side chains are listed from the residue outwards. Peptide text beside a SMILES is read from it. * marks the point of attachment. C20 diacid = O=C(O)CCCCCCCCCCCCCCCCCCC(=O)*; γGlu = O=C(O)[C@H](CCC(=O)[*:2])N[*:1]; AEEA = NCCOCCOCC(=O)O; Aib = CC(C)(N)C(=O)O

Legend:
[1] = Fibril formation of crude library peptides (Thioflavin T); format: physicochemical; parameters: key: average ThT fluorescence emission at 480 nm (ex 450 nm), raw units; conditions: Physical stability of peptides
Method in brief: (§1)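 Values reflect mean ThT emission (ex 450, em 480 nm) over 72 h at 40° C, read every 10 min after 5 min shaking at 700 rpm, plus a single initial absorbance at 600 nm for turbidity. Peptides were at 267 μM, pH 4.0 acetate or pH 7.0 phosphate (50 mM), with 4 μM ThT.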

[2] = Turbidity of crude library peptides (absorbance at 600 nm); format: physicochemical; conditions: Physical stability of peptides
Method in brief: as §1

GLP1R = GLP1R (Homo sapiens, UniProt P43220); assay: hGLP1R potency, cAMP accumulation in CHO-K1 cells stably overexpressing hGLP1R; format: cell-based; parameters: host or cells: CHO-K1; conditions: for EC50: cAMP accumulation, CHO-K1 cells overexpressing hGLP1R, read-out: hGLP1R pEC50 (converted); for SCTR EC50/GLP1R EC50 ratio: selectivity for hGLP1R over hSCTR, cAMP accumulation in CHO-K1 cells
Method in brief: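 Cells were plated in DPBS with 0.05% casein and 0.5 mM IBMX, then stimulated for 30 min at room temperature with test compound. cAMP was read by TR-FRET after one hour. EC50 came from variable-slope sigmoid nonlinear regression; purified peptides ran as 11-point 3-fold series, n=2.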

SCTR = SCTR (Homo sapiens, UniProt P47872); assay: hSCTR potency, cAMP accumulation in CHO-K1 cells stably overexpressing hSCTR; format: cell-based; parameters: alternatively Euroscreen ES-712-AF; FAST-0161L; host or cells: CHO-K1; conditions: cAMP accumulation, CHO-K1 cells overexpressing hSCTR; read-out: hSCTR pEC50 (converted)
Method in brief: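 Division-arrested CHO-K1 cells stably expressing hSCTR were plated in DPBS with 0.05% casein and 0.5 mM IBMX, then stimulated with test peptide for 30 min at room temperature. cAMP was read by HTRF after one hour. EC50 came from variable-slope sigmoidal nonlinear regression.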

Sequence of GLP1R (P43220 24-463): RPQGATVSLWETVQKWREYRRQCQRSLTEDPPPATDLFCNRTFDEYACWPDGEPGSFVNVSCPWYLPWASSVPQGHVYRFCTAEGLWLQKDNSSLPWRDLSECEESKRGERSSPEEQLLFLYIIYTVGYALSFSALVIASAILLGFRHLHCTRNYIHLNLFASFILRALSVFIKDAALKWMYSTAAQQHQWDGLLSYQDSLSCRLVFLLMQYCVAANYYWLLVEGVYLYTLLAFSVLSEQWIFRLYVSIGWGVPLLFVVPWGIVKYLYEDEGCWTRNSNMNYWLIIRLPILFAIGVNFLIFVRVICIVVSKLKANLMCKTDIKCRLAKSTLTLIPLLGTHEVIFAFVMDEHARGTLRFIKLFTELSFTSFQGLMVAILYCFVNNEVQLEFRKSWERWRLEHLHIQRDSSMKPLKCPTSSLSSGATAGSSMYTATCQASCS
Sequence of SCTR (P47872 23-440): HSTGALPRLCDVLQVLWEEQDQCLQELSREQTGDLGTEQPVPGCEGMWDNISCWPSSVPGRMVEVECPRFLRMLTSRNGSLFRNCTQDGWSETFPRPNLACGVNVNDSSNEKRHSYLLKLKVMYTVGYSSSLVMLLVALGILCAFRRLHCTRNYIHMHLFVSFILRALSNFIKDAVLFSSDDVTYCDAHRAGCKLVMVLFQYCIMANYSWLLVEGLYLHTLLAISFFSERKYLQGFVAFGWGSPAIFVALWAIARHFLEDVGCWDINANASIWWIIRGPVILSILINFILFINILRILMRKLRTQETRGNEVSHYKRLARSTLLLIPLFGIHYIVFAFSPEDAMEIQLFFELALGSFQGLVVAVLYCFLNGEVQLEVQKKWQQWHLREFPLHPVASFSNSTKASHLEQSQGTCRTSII

SMILES | Fibril formation [1] | Turbidity (pH 7) [2] | EC50 (GLP1R) | SCTR EC50/GLP1R EC50 ratio (GLP1R) | EC50 (SCTR)
CC[C@H](C)[C@H](NC(=O)[C@H](Cc1ccccc1)NC(=O)[C@H](CCCNC(=N)N)NC(=O)[C@H](CCC(N)=O)NC(=O)[C@H](CC(C)C)NC(=O)[C@H](C)NC(=O)[C@H](C)NC(=O)CNC(=O)[C@H](CCC(=O)O)NC(=O)[C@H](CC(C)C)NC(=O)[C@H](CC(C)C)NC(=O)[C@H](Cc1c[nH]c2ccccc12)NC(=O)[C@H](CO)NC(=O)[C@@H](NC(=O)[C@H](CC(=O)O)NC(=O)[C@H](CO)NC(=O)[C@@H](NC(=O)[C@H](Cc1ccccc1)NC(=O)[C@@H](NC(=O)CNC(=O)[C@H](CCC(=O)O)NC(=O)C(C)(C)NC(=O)[C@@H](N)Cc1c[nH]cn1)[C@@H](C)O)[C@@H](C)O)[C@@H](C)CC)C(=O)N[C@@H](CCC(N)=O)C(=O)N[C@@H](Cc1c[nH]c2ccccc12)C(=O)N[C@@H](CC(C)C)C(=O)N[C@H](C(N)=O)C(C)C [compound 118] (H-H[Aib]EGTFTSDISWLLEGAALQRFIQWLV-NH2) | 143374 | 0.63 | 0.0631 nM | 1256 | 79.4 nM
CC[C@H](C)[C@H](NC(=O)[C@H](Cc1ccccc1)NC(=O)[C@H](CCCNC(=N)N)NC(=O)[C@H](CCC(N)=O)NC(=O)[C@H](CC(C)C)NC(=O)[C@H](C)NC(=O)[C@H](C)NC(=O)CNC(=O)[C@H](CCC(=O)O)NC(=O)[C@H](CC(C)C)NC(=O)[C@H](CC(C)C)NC(=O)[C@H](CCC(=O)O)NC(=O)[C@H](CO)NC(=O)[C@@H](NC(=O)[C@H](CC(=O)O)NC(=O)[C@H](CO)NC(=O)[C@@H](NC(=O)[C@H](Cc1ccccc1)NC(=O)[C@@H](NC(=O)CNC(=O)[C@H](CCC(=O)O)NC(=O)C(C)(C)NC(=O)[C@@H](N)Cc1c[nH]cn1)[C@@H](C)O)[C@@H](C)O)[C@@H](C)CC)C(=O)N[C@@H](CCC(N)=O)C(=O)N[C@@H](Cc1c[nH]c2ccccc12)C(=O)N[C@@H](CC(C)C)C(=O)N[C@H](C(N)=O)C(C)C [compound 119] (H-H[Aib]EGTFTSDISELLEGAALQRFIQWLV-NH2) | 13897 | 0.12 | 0.0251 nM | 2127 | 50.1 nM
CC[C@H](C)[C@H](NC(=O)[C@H](CC(=O)O)NC(=O)[C@H](CO)NC(=O)[C@@H](NC(=O)[C@H](Cc1ccccc1)NC(=O)[C@@H](NC(=O)CNC(=O)[C@H](CCC(=O)O)NC(=O)C(C)(C)NC(=O)[C@@H](N)Cc1c[nH]cn1)[C@@H](C)O)[C@@H](C)O)C(=O)N[C@@H](CO)C(=O)NCC(=O)N[C@@H](CC(C)C)C(=O)N[C@@H](CC(C)C)C(=O)N[C@@H](CCC(=O)O)C(=O)NCC(=O)N[C@@H](C)C(=O)N[C@@H](C)C(=O)N[C@@H](CC(C)C)C(=O)N[C@@H](CCC(N)=O)C(=O)N[C@@H](CCCNC(=N)N)C(=O)N[C@@H](Cc1ccccc1)C(=O)N[C@H](C(=O)N[C@@H](CCC(N)=O)C(=O)N[C@@H](Cc1c[nH]c2ccccc12)C(=O)N[C@@H](CC(C)C)C(=O)N[C@H](C(N)=O)C(C)C)[C@@H](C)CC [compound 120] (H-H[Aib]EGTFTSDISGLLEGAALQRFIQWLV-NH2) | 4449 | 0.23 | 0.0501 nM | 3717 | 200 nM
CC(C)C[C@H](NC(=O)[C@H](Cc1ccccc1)NC(=O)[C@H](CCCNC(=N)N)NC(=O)[C@H](CCC(N)=O)NC(=O)[C@H](CC(C)C)NC(=O)C(C)(C)NC(=O)[C@H](C)NC(=O)[C@H](CCC(=O)O)NC(=O)[C@H](CCC(=O)O)NC(=O)[C@H](CCCCNC(=O)COCCOCCNC(=O)COCCOCCNC(=O)CC[C@H](NC(=O)CCCCCCCCCCCCCCCCCCC(=O)O)C(=O)O)NC(=O)[C@H](CC(C)C)NC(=O)[C@H](Cc1ccc(O)cc1)NC(=O)[C@H](CO)NC(=O)[C@@H]1CCCN1C(=O)[C@H](CC(=O)O)NC(=O)[C@H](CO)NC(=O)[C@@H](NC(=O)[C@H](Cc1ccccc1)NC(=O)[C@@H](NC(=O)CNC(=O)[C@H](CCC(=O)O)NC(=O)C(C)(C)NC(=O)[C@@H](N)Cc1c[nH]cn1)[C@@H](C)O)[C@@H](C)O)C(=O)N[C@@H](CCC(=O)O)C(=O)N[C@@H](Cc1c[nH]cn1)C(=O)N[C@@H](CC(C)C)C(=O)N[C@H](C(N)=O)C(C)C [compound 121] (H-H[Aib]EGTFTSDPSYLK([AEEA-AEEA-γGlu-C20 diacid])EEA[Aib]LQRFLEHLV-NH2) | 24767 | 0.08 | 2.51 nM | 17452 | 39800 nM
CC[C@H](C)[C@H](NC(=O)[C@H](Cc1ccccc1)NC(=O)[C@H](CCCNC(=N)N)NC(=O)[C@H](CCC(N)=O)NC(=O)[C@H](CC(C)C)NC(=O)[C@H](C)NC(=O)[C@H](C)NC(=O)CNC(=O)[C@H](CCC(=O)O)NC(=O)[C@H](CC(C)C)NC(=O)[C@H](CC(C)C)NC(=O)[C@H](CCC(=O)O)NC(=O)[C@H](CO)NC(=O)[C@@H]1CCCN1C(=O)[C@H](CC(=O)O)NC(=O)[C@H](CO)NC(=O)[C@@H](NC(=O)[C@H](Cc1ccccc1)NC(=O)[C@@H](NC(=O)CNC(=O)[C@H](CCC(=O)O)NC(=O)C(C)(C)NC(=O)[C@@H](N)Cc1c[nH]cn1)[C@@H](C)O)[C@@H](C)O)C(=O)N[C@@H](CCC(N)=O)C(=O)N[C@@H](Cc1c[nH]c2ccccc12)C(=O)N[C@@H](CC(C)C)C(=O)N[C@H](C(N)=O)C(C)C [compound 122] (H-H[Aib]EGTFTSDPSELLEGAALQRFIQWLV-NH2) | 3560 | 0.08 | 6.31 nM | 804 | 5010 nM

Results, then the compound that gave them:

Fibril formation [1] | Turbidity (pH 7) [2] | EC50 (GLP1R) | SCTR EC50/GLP1R EC50 ratio (GLP1R) | EC50 (SCTR) | SMILES
3764 | 0.11 | 10 nM | 671 | 6310 nM | CC[C@H](C)[C@H](NC(=O)[C@H](Cc1ccccc1)NC(=O)[C@H](CCCNC(=N)N)NC(=O)[C@H](CCC(N)=O)NC(=O)[C@H](CC(C)C)NC(=O)[C@H](C)NC(=O)[C@H](C)NC(=O)CNC(=O)[C@H](CCC(=O)O)NC(=O)[C@H](CC(C)C)NC(=O)[C@H](CC(C)C)NC(=O)CNC(=O)[C@H](CO)NC(=O)[C@@H]1CCCN1C(=O)[C@H](CC(=O)O)NC(=O)[C@H](CO)NC(=O)[C@@H](NC(=O)[C@H](Cc1ccccc1)NC(=O)[C@@H](NC(=O)CNC(=O)[C@H](CCC(=O)O)NC(=O)C(C)(C)NC(=O)[C@@H](N)Cc1c[nH]cn1)[C@@H](C)O)[C@@H](C)O)C(=O)N[C@@H](CCC(N)=O)C(=O)N[C@@H](Cc1c[nH]c2ccccc12)C(=O)N[C@@H](CC(C)C)C(=O)N[C@H](C(N)=O)C(C)C [compound 123] (H-H[Aib]EGTFTSDPSGLLEGAALQRFIQWLV-NH2)
1370 | 0.12 | 2.51 nM | 2086 | 5010 nM | CC[C@H](C)[C@H](NC(=O)[C@H](Cc1ccccc1)NC(=O)[C@H](CCCNC(=N)N)NC(=O)[C@H](CCC(N)=O)NC(=O)[C@H](CC(C)C)NC(=O)[C@H](C)NC(=O)[C@H](C)NC(=O)CNC(=O)[C@H](CCC(=O)O)NC(=O)[C@H](CC(C)C)NC(=O)[C@H](CC(C)C)NC(=O)[C@H](CCCNC(=N)N)NC(=O)[C@H](CO)NC(=O)[C@@H]1CCCN1C(=O)[C@H](CC(=O)O)NC(=O)[C@H](CO)NC(=O)[C@@H](NC(=O)[C@H](Cc1ccccc1)NC(=O)[C@@H](NC(=O)CNC(=O)[C@H](CCC(=O)O)NC(=O)C(C)(C)NC(=O)[C@@H](N)Cc1c[nH]cn1)[C@@H](C)O)[C@@H](C)O)C(=O)N[C@@H](CCC(N)=O)C(=O)N[C@@H](Cc1c[nH]c2ccccc12)C(=O)N[C@@H](CC(C)C)C(=O)N[C@H](C(N)=O)C(C)C [compound 124] (H-H[Aib]EGTFTSDPSRLLEGAALQRFIQWLV-NH2)
4675 | 0.11 | 3.98 nM | 2342 | 10000 nM | CC[C@H](C)[C@H](NC(=O)[C@H](Cc1ccccc1)NC(=O)[C@H](CCCNC(=N)N)NC(=O)[C@H](CCC(N)=O)NC(=O)[C@H](CC(C)C)NC(=O)[C@H](C)NC(=O)[C@H](C)NC(=O)CNC(=O)[C@H](CCC(=O)O)NC(=O)[C@H](CC(C)C)NC(=O)[C@H](CC(C)C)NC(=O)C(C)(C)NC(=O)[C@H](CO)NC(=O)[C@@H]1CCCN1C(=O)[C@H](CC(=O)O)NC(=O)[C@H](CO)NC(=O)[C@@H](NC(=O)[C@H](Cc1ccccc1)NC(=O)[C@@H](NC(=O)CNC(=O)[C@H](CCC(=O)O)NC(=O)C(C)(C)NC(=O)[C@@H](N)Cc1c[nH]cn1)[C@@H](C)O)[C@@H](C)O)C(=O)N[C@@H](CCC(N)=O)C(=O)N[C@@H](Cc1c[nH]c2ccccc12)C(=O)N[C@@H](CC(C)C)C(=O)N[C@H](C(N)=O)C(C)C [compound 125] (H-H[Aib]EGTFTSDPS[Aib]LLEGAALQRFIQWLV-NH2)
